Each block holds one compound with its values, some of them ahead of it.
Tests used:
[1] = biological target: T1, Peroxisome proliferator-activated receptor alpha (Homo sapiens) (UniProt Q07869); assay: Agonist activity at PPARalpha ligand binding domain expressed in HEK293 cells co-expressing GAL4 at 150 uM after 18 hrs by dual-luciferase activity based transactivation assay relative to control; assay type: cell-based
T1 sequence (whole entry): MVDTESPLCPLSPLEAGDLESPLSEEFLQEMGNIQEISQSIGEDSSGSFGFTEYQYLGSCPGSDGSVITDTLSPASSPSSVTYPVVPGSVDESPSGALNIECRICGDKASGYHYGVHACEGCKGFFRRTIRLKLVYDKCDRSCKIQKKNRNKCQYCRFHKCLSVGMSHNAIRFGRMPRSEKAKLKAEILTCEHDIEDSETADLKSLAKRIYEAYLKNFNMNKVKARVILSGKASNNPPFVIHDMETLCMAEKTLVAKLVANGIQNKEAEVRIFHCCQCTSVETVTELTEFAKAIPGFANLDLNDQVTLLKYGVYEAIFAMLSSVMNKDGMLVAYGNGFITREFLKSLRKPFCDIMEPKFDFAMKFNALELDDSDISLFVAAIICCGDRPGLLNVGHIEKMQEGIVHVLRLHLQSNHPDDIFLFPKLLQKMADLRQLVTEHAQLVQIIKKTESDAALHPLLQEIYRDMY

[2] = biological target: T2, Peroxisome proliferator-activated receptor alpha (Homo sapiens, UniProt Q07869); assay: Agonist activity at PPARalpha ligand binding domain expressed in HEK293 cells co-expressing GAL4 after 18 hrs by dual-luciferase activity based transactivation assay; assay type: cell-based
T2 sequence (Q07869 whole entry): T1 sequence (whole entry)

[3] = biological target: T1, Peroxisome proliferator-activated receptor alpha (Homo sapiens); assay: Antagonist activity at PPARalpha in human HepG2 cells assessed as inhibition of GW7647-induced CPT1A mRNA expression at 2 uM after 48 hrs by RT-PCR analysis relative to control; assay type: functional, cell-based
[4] = biological target: T1, Peroxisome proliferator-activated receptor alpha (Homo sapiens); assay: Antagonist activity at PPARalpha ligand binding domain expressed in HEK293 cells co-expressing GAL4 assessed as inhibition of transactivation activity at 100 uM after 18 hrs by dual-luciferase assay relative to control; assay type: cell-based
[5] = biological target: T1, Peroxisome proliferator-activated receptor alpha (Homo sapiens); assay: Antagonist activity at PPARalpha in human HepG2 cells assessed as inhibition of GW7647-induced CPT1A mRNA expression at 150 uM after 48 hrs by RT-PCR analysis relative to control; assay type: functional, cell-based
[6] = biological target: T1, Peroxisome proliferator-activated receptor alpha (Homo sapiens); assay: Antagonist activity at PPARalpha in human HepG2 cells assessed as inhibition of GW7647-induced CPT1A mRNA expression at 0.2 uM after 48 hrs by RT-PCR analysis relative to control; assay type: functional, cell-based
[7] = biological target: T1, Peroxisome proliferator-activated receptor alpha (Homo sapiens); assay: (§1) Antagonist activity at PPARalpha ligand binding domain expressed in HEK293 cells co-expressing GAL4 assessed as inhibition of GW7647-induced transactivation activity after 18 hrs by dual-luciferase assay; assay type: cell-based
[8] = biological target: T2, Peroxisome proliferator-activated receptor alpha; assay: as §1; assay type: cell-based
[9] = biological target: T1, Peroxisome proliferator-activated receptor alpha (Homo sapiens); assay: Antagonist activity at PPARalpha ligand binding domain expressed in HEK293 cells co-expressing GAL4 assessed as inhibition of GW7647-induced transactivation activity at 10 uM after 18 hrs by dual-luciferase assay relative to control; assay type: cell-based
[10] = biological target: T1, Peroxisome proliferator-activated receptor alpha (Homo sapiens); assay: Antagonist activity at PPARalpha ligand binding domain expressed in HEK293 cells co-expressing GAL4 assessed as inhibition of GW7647-induced transactivation activity at 1 uM after 18 hrs by dual-luciferase assay relative to control; assay type: cell-based
[11] = biological target: T1, Peroxisome proliferator-activated receptor alpha (Homo sapiens); assay: Antagonist activity at PPARalpha in human HepG2 cells assessed as inhibition of GW7647-induced CPT1A mRNA expression at 20 uM after 48 hrs by RT-PCR analysis relative to control; assay type: functional, cell-based
[12] = biological target: T1, Peroxisome proliferator-activated receptor alpha (Homo sapiens); assay: Antagonist activity at PPARalpha ligand binding domain expressed in HEK293 cells co-expressing GAL4 assessed as inhibition of transactivation activity at 50 uM after 18 hrs by dual-luciferase assay relative to control; assay type: cell-based
[13] = biological target: T1, Peroxisome proliferator-activated receptor alpha (Homo sapiens); assay: Antagonist activity at PPARalpha in human HepG2 cells assessed as inhibition of CPT1A mRNA expression at 150 uM after 48 hrs by RT-PCR analysis relative to control; assay type: functional, cell-based
[14] = biological target: T1, Peroxisome proliferator-activated receptor alpha (Homo sapiens); assay: Antagonist activity at PPARalpha in human HepG2 cells assessed as inhibition of GW7647-induced CPT1A mRNA expression after 48 hrs by RT-PCR analysis relative to control; assay type: functional, cell-based
[15] = biological target: T1, Peroxisome proliferator-activated receptor alpha (Homo sapiens); assay: Antagonist activity at PPARalpha ligand binding domain expressed in HEK293 cells co-expressing GAL4 assessed as inhibition of transactivation activity at 150 uM after 18 hrs by dual-luciferase assay relative to control; assay type: cell-based
[16] = biological target: T1, Peroxisome proliferator-activated receptor alpha (Homo sapiens); assay: Antagonist activity at PPARalpha ligand binding domain expressed in HEK293 cells co-expressing GAL4 assessed as inhibition of transactivation activity at 1 uM after 18 hrs by dual-luciferase assay relative to control; assay type: cell-based
[17] = biological target: T1, Peroxisome proliferator-activated receptor alpha (Homo sapiens); assay: Antagonist activity at PPARalpha ligand binding domain expressed in HEK293 cells co-expressing GAL4 assessed as inhibition of GW7647-induced transactivation activity at 150 uM after 18 hrs by dual-luciferase assay relative to control; assay type: cell-based
[18] = biological target: T1, Peroxisome proliferator-activated receptor alpha (Homo sapiens); assay: Antagonist activity at PPARalpha ligand binding domain expressed in HEK293 cells co-expressing GAL4 assessed as inhibition of transactivation activity at 10 uM after 18 hrs by dual-luciferase assay relative to control; assay type: cell-based
[19] = biological target: T1, Peroxisome proliferator-activated receptor alpha (Homo sapiens); assay: Antagonist activity at PPARalpha ligand binding domain expressed in HEK293 cells co-expressing GAL4 assessed as inhibition of GW7647-induced transactivation activity at 100 uM after 18 hrs by dual-luciferase assay relative to control; assay type: cell-based
[20] = biological target: T1, Peroxisome proliferator-activated receptor alpha (Homo sapiens); assay: Antagonist activity at PPARalpha ligand binding domain expressed in HEK293 cells co-expressing GAL4 assessed as inhibition of GW7647-induced transactivation activity at 50 uM after 18 hrs by dual-luciferase assay relative to control; assay type: cell-based

SMILES: CCCCCCC(Sc1nc2cc(Cl)ccc2s1)C(=O)NS(=O)(=O)c1ccccc1 (racemic)
- fold change (FC) [1]: 1.49
- EC50 [2]: 50.6 µM

SMILES: O=C(NS(=O)(=O)c1ccccc1)C(Sc1nc2cc(Cl)ccc2s1)c1ccccc1 (racemic)
- fold change (FC) [3]: 2.36
- fold change (FC) [4]: -0.03
- fold change (FC) [5]: 0.005
- fold change (FC) [6]: 3.59
- inhibition [7]: Dose-dependent effect
- IC50 [8]: 6.5 µM
- fold change (FC) [9]: 2.14
- fold change (FC) [10]: 3.8
- fold change (FC) [11]: 1.68
- fold change (FC) [12]: -0.03
- fold change (FC) [13]: 0.005
- inhibition [14]: Dose-dependent effect
- fold change (FC) [1]: 0.01
- fold change (FC) [15]: -0.01
- fold change (FC) [16]: -0.78
- fold change (FC) [17]: -0.09
- fold change (FC) [18]: -0.23
- fold change (FC) [19]: -0.1
- fold change (FC) [20]: -0.63

SMILES: CCCC(Sc1nc2ccc(OCC)cc2s1)C(=O)NS(=O)(=O)c1ccccc1 (racemic)
- IC50 [8]: 31 µM
- fold change (FC) [1]: 0.05

SMILES: CCCCC(Sc1nc2cc(Cl)ccc2s1)C(=O)NS(=O)(=O)c1ccccc1 (racemic)
- fold change (FC) [5]: 0.003
- IC50 [8]: 19.9 µM
- fold change (FC) [13]: 0.005
- fold change (FC) [1]: 0.01

Now from value to compound:

- fold change (FC) [1]: 1.6
SMILES: CC(C)(Oc1ccc(Cl)cc1)C(=O)O

- fold change (FC) [5]: 0.235
- IC50 [8]: 22.2 µM
- fold change (FC) [13]: 0.248
- fold change (FC) [1]: 0.09
SMILES: CCCC(Sc1nc2cc(Cl)ccc2s1)C(=O)NS(=O)(=O)c1ccccc1 (racemic)

- fold change (FC) [1]: 0.89
SMILES: CCOc1ccc2nc(SC(C)C(=O)NS(=O)(=O)c3ccccc3)sc2c1 (racemic)

- IC50 [8]: 27.9 µM
- fold change (FC) [1]: 0.1
SMILES: CC(C)C(Sc1nc2cc(Cl)ccc2s1)C(=O)NS(=O)(=O)c1ccccc1 (racemic)
